Here are results for eleven compounds from patent US20150133426A1, “SUBSTITUTED PYRROLOPYRIMIDINES” (BAYER PHARMA AKTIENGESELLSCHAFT, priority 2012, published 2015).

For the experiment, the target named is T1, human full-length MKNK1 (Homo sapiens, UniProt Q9BUB5, T385D).
T1 construct: purchased Carna Biosciences 02-145; host or cells: insect cells, baculovirus expression system
The experiment in a line: MKNK1 kinase high ATP assay (TR-FRET). The class given is biochemical. The conditions noted are these: high ATP (2 mM), 15 min preincubation with enzyme, GST-MKNK1 (T344D). As to the method:
MKNK1-inhibitory activity at high ATP of compounds of the present invention after their preincubation with MKNK1 was quantified employing the TR-FRET-based MKNK1 high ATP assay as described in the following paragraphs.
A recombinant fusion protein of Glutathione-S-Transferase (GST, N-terminally) and human full-length MKNK1 (amino acids 1-424 and T344D of accession number BAA 19885.1), expressed in insect cells using baculovirus expression system and purified via glutathione sepharose affinity chromatography, was purchased from Carna Biosciences (product no 02-145) and used as enzyme. As substrate for the kinase reaction the biotinylated peptide biotin-Ahx-IKKRKLTRRKSLKG (C-terminus in amide form) was used, which can be purchased e.g. from the company Biosyntan (Berlin-Buch, Germany).
For the assay 50 nL of a 100fold concentrated solution of the test compound in DMSO was pipetted into a black low volume 384well microtiter plate (Greiner Bio-One, Frickenhausen, Germany), 2 μL of a solution of MKNK1 in aqueous assay buffer [50 mM HEPES pH 7.5, 5 mM MgCl2, 1.0 mM dithiothreitol, 0.005% (v/v) Nonidet-P40 (Sigma)] was added and the mixture was incubated for 15 min at 22° C. to allow pre-binding of the test compounds to the enzyme before the start of the kinase reaction. Then the kinase reaction was started by the addition of 3 μL of a solution of adenosine-tri-phosphate (ATP, 3.3 mM=>final conc. in the 5 μL assay volume is 2 mM) and substrate (0.1 μM=>final conc. in the 5 μL assay volume is 0.06 μM) in assay buffer and the resulting mixture was incubated for a reaction time of 30 min at 22° C. The concentration of MKNK1 was adjusted depending of the activity of the enzyme lot and was chosen appropriate to have the assay in the linear range, typical concentrations were in the range of 0.003 μg/mL. The reaction was stopped by the addition of 5 μL of a solution of TR-FRET detection reagents (5 nM streptavidine-XL665 [Cisbio Bioassays, Codolet, France] and 1 nM anti-ribosomal protein […] (pSer236)-antibody from Invitrogen [#44921G] and 1 nM LANCE EU-W1024 labeled ProteinG [Perkin-Elmer, product no. AD0071]) in an aqueous EDTA-solution (100 mM EDTA, 0.1% (w/v) bovine serum albumin in 50 mM HEPES pH 7.5).
The resulting mixture was incubated for 1 h at 22° C. to allow the formation of complex between the phosphorylated biotinylated peptide and the detection reagents. Subsequently the amount of phosphorylated substrate was evaluated by measurement of the resonance energy transfer from the Eu-chelate to the streptavidine-XL. Therefore, the fluorescence emissions at 620 nm and 665 nm after excitation at 350 nm were measured in a TR-FRET reader, e.g. a Rubystar (BMG Labtechnologies, Offenburg, Germany) or a Viewlux (Perkin-Elmer). The ratio of the emissions at 665 nm and at […] was taken as the measure for the amount of phosphorylated substrate. The data were normalised (enzyme reaction without inhibitor=0% inhibition, all other assay components but no enzyme=100% inhibition).

T1 sequence (Q9BUB5 1-424 isoform Q9BUB5-2 T344D): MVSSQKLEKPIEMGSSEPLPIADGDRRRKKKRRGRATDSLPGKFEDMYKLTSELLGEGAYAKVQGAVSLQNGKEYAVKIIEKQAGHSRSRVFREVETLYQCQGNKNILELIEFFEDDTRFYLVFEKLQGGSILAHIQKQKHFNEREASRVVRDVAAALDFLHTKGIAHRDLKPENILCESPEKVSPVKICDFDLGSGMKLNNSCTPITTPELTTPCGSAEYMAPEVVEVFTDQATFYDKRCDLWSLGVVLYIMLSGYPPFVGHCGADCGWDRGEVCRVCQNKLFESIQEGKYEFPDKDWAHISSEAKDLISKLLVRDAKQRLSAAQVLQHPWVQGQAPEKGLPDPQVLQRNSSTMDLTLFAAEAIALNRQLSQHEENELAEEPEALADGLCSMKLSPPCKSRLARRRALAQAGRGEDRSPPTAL

Take `CS(=O)(=O)CCCNC(=O)C1CCc2[nH]c3ncnc(Nc4ccc(C(=O)N5CCCC5)cc4)c3c2C1` (racemic) [Example 38, (RS)—N-[3-(Methylsulfonyl)propyl]-4-{[4-(pyrrolidin-1-ylcarbonyl)phenyl]amino}-6,7,8,9-tetrahydro-5H-pyrimido[4,5-b]indole-6-carboxamide]: the IC50 was 10600 nM.

As for `COc1ccc(F)cc1Nc1ncnc2[nH]c3c(c12)CC(C(=O)NCCCS(C)(=O)=O)CC3` (racemic) [Example 39, (RS)-4-[(5-Fluoro-2-methoxyphenyl)amino]-N-[3-(methylsulfonyl)propyl]-6,7,8,9-tetrahydro-5H-pyrimido[4,5-b]indole-6-carboxamide], the IC50 came to 59 nM. Turning to `CS(=O)(=O)CCCNC(=O)C1CCc2[nH]c3ncnc(Nc4ccc5c(c4)CS(=O)(=O)C5)c3c2C1` (racemic) [Example 40, (RS)-4-[(2,2-Dioxido-1,3-dihydro-2-benzothiophen-5-yl)amino]-N-[3-(methylsulfonyl)propyl]-6,7,8,9-tetrahydro-5H-pyrimido[4,5-b]indole-6-carboxamide], half-maximal inhibition (IC50) was put at 1160 nM. On to `CNS(=O)(=O)c1ccc(Nc2ncnc3[nH]c4c(c23)CC(C(=O)NCCCS(C)(=O)=O)CC4)cc1` (racemic) [Example 41, (RS)-4-{[4-(Methylsulfamoyl)phenyl]amino}-N-[3-(methylsulfonyl)propyl]-6,7,8,9-tetrahydro-5H-pyrimido[4,5-b]indole-6-carboxamide], for which inhibition was half-maximal at 9330 nM (IC50). `COc1ccc(OC)c(Nc2ncnc3[nH]c4c(c23)CC(C(=O)NCCCS(C)(=O)=O)CC4)c1` (racemic) [Example 42, (RS)-4-[(2,5-Dimethoxyphenyl)amino]-N-[3-(methylsulfonyl)propyl]-6,7,8,9-tetrahydro-5H-pyrimido[4,5-b]indole-6-carboxamide] showed an IC50 of 615 nM. Then `CS(=O)(=O)CCCNC(=O)C1CCc2[nH]c3ncnc(Nc4ccc(F)c(OC(F)(F)F)c4)c3c2C1` (racemic) [Example 43, (RS)-4-{[4-Fluoro-3-(trifluoromethoxy)phenyl]amino}-N-[3-(methylsulfonyl)propyl]-6,7,8,9-tetrahydro-5H-pyrimido[4,5-b]indole-6-carboxamide], with 782 nM. Then `COc1cc(Cl)c(Cl)cc1Nc1ncnc2[nH]c3c(c12)CC(C(=O)NCCCS(C)(=O)=O)CC3` (racemic) [Example 44, (RS)-4-[(4,5-Dichloro-2-methoxyphenyl)amino]-N-[3-(methylsulfonyl)propyl]-6,7,8,9-tetrahydro-5H-pyrimido[4,5-b]indole-6-carboxamide], with 6 nM; and `CS(=O)(=O)CCCNC(=O)C1CCc2[nH]c3ncnc(Nc4ccc5c(c4)COC5=O)c3c2C1` (racemic) [Example 45, (RS)—N-[3-(Methylsulfonyl)propyl]-4-[(1-oxo-1,3-dihydro-2-benzofuran-5-yl)amino]-6,7,8,9-tetrahydro-5H-pyrimido[4,5-b]indole-6-carboxamide], with 82 nM. `CS(=O)(=O)CCCNC(=O)C1CCc2[nH]c3ncnc(Nc4ccc5c(c4)C(=O)OC5)c3c2C1` (racemic) [Example 46, (RS)—N-[3-(Methylsulfonyl)propyl]-4-[(3-oxo-1,3-dihydro-2-benzofuran-5-yl)amino]-6,7,8,9-tetrahydro-5H-pyrimido[4,5-b]indole-6-carboxamide] registered an IC50 of 2240 nM.

`CS(=O)(=O)CCCNC(=O)C1CCc2[nH]c3ncnc(Nc4cccc(-n5cnnn5)c4)c3c2C1` (racemic) [Example 47, (RS)—N-[3-(Methylsulfonyl)propyl]-4-{[3-(1H-tetrazol-1-yl)phenyl]amino}-6,7,8,9-tetrahydro-5H-pyrimido[4,5-b]indole-6-carboxamide]: the IC50 was 1310 nM. Then `CS(=O)(=O)CCCNC(=O)C1CCc2[nH]c3ncnc(Nc4ccc(S(N)(=O)=O)cc4)c3c2C1` (racemic) [Example 48, (RS)—N-[3-(Methylsulfonyl)propyl]-4-[(4-sulfamoylphenyl)amino]-6,7,8,9-tetrahydro-5H-pyrimido[4,5-b]indole-6-carboxamide], with 2840 nM.
